This is an account of results in publication PMC8779255, “Determining the Anticancer Activity of Sphingosine Kinase Inhibitors Containing Heteroatoms in Their Tail Structure” (Pharmaceutics, 2022).

In series [1] the test system is sphingosine in HCT116 cells. The series is described as follows: Sphingosine ELISA of cell lysate. The format is cell-based, human. Particulars: 24 h, vs nontreated control. On the procedure: The cellular levels of S1P, sphingosine, and ceramide were detected using an ELISA assay kit (MyBioSource, Inc., San Diego, CA, USA) according to the manufacturer’s instruction. For S1P ELISA, 100 µL cell lysates or standards were added in pre-coated ELISA wells, incubated for 90 min at 37 °C, and treated with 1x biotinylated anti S1P antibody for 1 h. Following treatment of HRP conjugated secondary antibody, the substrate was added and allowed to change the color for 15 min; then, the stop solution was added and absorbance was measured at 450 nm using a Multiskan GO (Thermo Scientific, Waltham, MA, USA) microplate spectrophotometer. […] A stop solution (50 µL) was added to each well, and optical density was measured at 450 nm using a microplate reader. […] After incubation, 50 µL substrate A and B was added to the plate and incubated at 37 °C for 20 min; a stop solution (50 µL) was added to each well and optical density was determined at 450 nm using a microplate reader. The concentration of S1P, sphingosine, and ceramide were calculated as ng/mL using respective standard curves constructed by Skanlt microplate reader software 5.0 (Thermo Scientific, Waltham, MA, USA).
Background: An ELISA detects its analyte on a solid surface through an enzyme-linked reagent.

A further series has as its target CYP2D6 (Homo sapiens, UniProt P10635). The series is described as follows: Inhibition of CYP enzymes activity, human liver microsomes. Particulars: human liver microsomes 0.25 mg/mL, 10 μM, dextromethorphan substrate. Background: Microsomes from liver hold many membrane-bound enzymes, among them those of drug oxidation.
In a further series the test system is HT29 cells. The series is described as follows: Mitochondrial outer membrane potential (MOMP) by JC-10 staining. In kind it is cell-based, human. Conditions: HT29, 10 and 20 µM, 24 h, vs nontreated control. As for the experimental part:
(§1) To access the mechanism of cell death, mitochondrial outer membrane potential (MOMP) was measured using JC-10 cationic dye. HT29 and HCT116 cells (2.5 × 10^5 cells/well) were seeded in 12-well plates and treated with a test compound for 24 h, collected in 1.5 mL microtubes using trypsin-EDTA, washed with 1× cold PBS, and stained with JC-10 dye prepared in HBSS solution (0.14 M NaCl, 0.005 M KCl, 0.001 M CaCl2, 0.005 M MgSO4. 7H2O, 0.0004 M […], 0.0003 M Na2HPO4-2H2O, 0.0004 M KH2PO4, 0.006 M D-glucose, 0.004 M NaHCO3, 0.002 M HEPES, and 0.02% Pluronic® F-127) for 30 min. Samples were analyzed using MACSQuanta Analyzer 10. Cells with green and red fluorescence were plotted in a dot plot; the ratio of red to green fluorescence was calculated using MACSQuantify^TM version 2.8 software and presented as MOMP of the cells. The experiment was repeated three times (n = 6).

The next series deals with HCT116 cells. Described as above. Particulars: HCT116, 10 and 20 µM, 24 h, vs nontreated control. The format is cell-based, human. As for the experimental part:
as §1

Sequence of CYP2D6 (P10635 whole entry): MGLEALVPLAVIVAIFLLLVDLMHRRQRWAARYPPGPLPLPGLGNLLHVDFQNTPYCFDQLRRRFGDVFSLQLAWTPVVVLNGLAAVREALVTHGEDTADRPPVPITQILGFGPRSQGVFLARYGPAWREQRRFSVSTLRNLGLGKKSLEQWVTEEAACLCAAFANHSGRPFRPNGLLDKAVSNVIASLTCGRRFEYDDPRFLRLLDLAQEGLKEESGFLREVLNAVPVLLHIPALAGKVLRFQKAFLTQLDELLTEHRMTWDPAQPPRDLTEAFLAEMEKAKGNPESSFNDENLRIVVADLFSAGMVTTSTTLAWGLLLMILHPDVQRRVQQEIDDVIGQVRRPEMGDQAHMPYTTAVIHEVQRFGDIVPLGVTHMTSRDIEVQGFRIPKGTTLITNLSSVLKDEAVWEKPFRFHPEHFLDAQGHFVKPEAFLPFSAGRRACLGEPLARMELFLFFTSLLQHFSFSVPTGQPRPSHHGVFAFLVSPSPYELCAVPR
Description for CYP2D6: Afterward, to terminate the reaction, an acetonitrile solution containing an internal standard (terfenadine) was added, centrifuged for 5 min (14,000 rpm, 4 °C), and the supernatant was injected into the LC-MS/MS system. By simultaneously analyzing metabolites, the ability of the six compounds to inhibit drug metabolism enzymes was evaluated.
Metabolites of each CYP coenzyme indicator drug generated through the above reaction were analyzed using the Shimadzu Nexera XR system and TSQ vantage (Thermo). The HPLC column was a Kinetex C18 column (2.1 × 100 mm^2, 2.6 μm particle size; Phenomenex, Torrance, CA, USA), and the mobile phase was distilled water (A) containing 0.1% formic acid and acetonitrile (B) containing 0.1% formic acid. […] The generated metabolites were quantified using MRM (Multiple Reaction Monitoring) quantification modes, and data were analyzed using Xcalibur (version 1.6.1).

Consider `CCCCCCCOc1ccc(CCN2CCN(CCO)CC2)cc1` [Compound 10, 2-(4-(4-(Heptyloxy)phenethyl)piperazin-1-yl)ethanol], for which the sphingosine level increase in series [1] (HCT116, 10 µM) came out at 1.42 fold; in series [1] (HCT116, 20 µM), 1.74 fold. Further, the “CYP2D6 activity (% of control activity)” value at CYP2D6 is recorded as 87.4%. The “JC-10 dye red to green fluorescence ratio (MOMP)” value in the series on HT29 cells and in the series on HCT116 cells was “significantly reduced” in each case.
